Experimental findings from patent US8269005B2 (Sunovion Pharmaceuticals Inc., priority 2007, dated 2012) are described below.

Series [1] in a line: Tablet dissolution over time in media of various pH. The format is physicochemical. As to conditions: for Dependence of dissolution on pH of the medium: oral dosage form, pH 1 to 6.8 and deionized water; for Fraction of tablet dissolved / Dissolution: tablet. The procedure: The dissolution media used were (a) pH 1 (0.1N HCl) 50 ml of cone HCl mixed in 6 L of water; (b) pH 4.5 acetate buffer (20 mM) […] of sodium acetate trihydrate dissolved in 6 L of water, pH adjusted to 4.5 with acetic acid; (c) pH 5.5 phosphate buffer (20 mM) 16.3 g of potassium dihydrogen phosphate in 6 L of water. pH adjusted to 5.5 with NaOH; (d) pH 6.8 phosphate buffer (20 mM) 16.3 g of potassium dihydrogen phosphate in 6 L of water. pH adjusted 6.8 with NaOH. A standard dissolution protocol was used. The standard solution (0.006 mg/mL of eszopiclone free base) was prepared by weighing a known amount (˜20 mg) of the free base into a 100 mL volumetric flask. 10 mL of acetonitrile was added into the flask and sonicated until the solids dissolved completely. The solution was cooled to room temperature and made up to the 100 mL mark using media and mixed well. Dilute 3 mL to 100 mL using media. The tables were prepared by transferring 500 mL dissolution media into the 6 vessels. Blank readings were taken for all the probes using media. Standards were read for individual vessels. Probes were washed with media and then inserted back into each vessel. One tablet was transferred into each vessel. The dissolution program was started immediately and readings were taken at 305 nm for 60 min (every 1 min for 20 min and then every 10 min).
FIG. 1 depicts dissolution profiles of the eszopiclone free base at pH 1 (0.1N HCl), pH 4.5 in buffer, pH 5.5 in buffer, pH 6.8 in buffer and in deionized water. […] It can be seen that the dissolution is greater than 50% within five minutes and greater than 80% at one hour at all pH.

Series [2] is described as follows: Aqueous solubility (24 hour equilibrated suspension in water, HPLC). It counts as physicochemical. As to conditions: for pH measured at saturation: saturated suspension in water. The procedure: The aliquot was diluted and analyzed by HPLC (Waters). The data was compared to a standard curve generated from a set of solutions of known concentrations. The standard curve and the samples were analyzed using a HPLC using the following conditions: […]

As to `CN1CCN(C(=O)O[C@H]2c3nccnc3C(=O)N2c2ccc(Cl)cn2)CC1` [Free base, [(9S)-8-(5-chloropyridin-2-yl)-7-oxo-2,5,8-triazabicyclo[4.3.0]nona-1,3,5-trien-9-yl]-4-methyl piperazine-1-carboxylate], the “Dependence of dissolution on pH of the medium” value in series [1] (listed as eszopiclone free base) was “decreases markedly as the pH rises”. Besides, the “Fraction of tablet dissolved” value in series [1] (deionized water, at one hour) is on record as “less than one half”; in series [1] (pH 6.8 buffer, at one hour), “less than one half”. The Dissolution result in series [1] (pH 1 (0.1N HCl)) is “rapid and complete”. Further, the “pH measured at saturation” value in series [2] was found to be 7.6. The Solubility in series [2] (water, ambient, equilibrated 24 hour) is 0.2^1 mgA/mL.

Regarding `CN1CCN(C(=O)O[C@H]2c3nccnc3C(=O)N2c2ccc(Cl)cn2)CC1` [L-malate, (S)-Zopiclone L-Malate], the “Dependence of dissolution on pH of the medium” value in series [1] (listed as L-malate salt) is “dissolve quickly and at substantially the same rate, regardless of the pH of the dissolving medium”. Also, the Dissolution entry is given as “greater than 80%” in series [1] (at one hour, all pH (pH 1, 4.5, 5.5, 6.8, deionized water)) and “greater than 50%” in series [1] (within five minutes, all pH (pH 1, 4.5, 5.5, 6.8, deionized water)). Besides, in series [2], the “pH measured at saturation” value was determined as 3.9.
